ChEMBL document CHEMBL1909046, “DrugMatrix in vitro pharmacology data”

Experiments:
[1] = biological target: Cytochrome P450 2D6 (Homo sapiens, UniProt P10635); conditions: bti-tn-5b1-4; note: in other assays of this panel Not Active means under 50% inhibition at 10 µM
[2] = DRUGMATRIX: ATPase, Na+/K+ enzyme inhibition (substrate: ATP); type: tissue-based, Sus scrofa, Heart; conditions: Not Active = under 50% inhibition at 10 µM
[3] = biological target: T1, Nitric oxide synthase, inducible (Mus musculus, UniProt P29477); parameters: species or system Escherichia coli;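 note: inhibition of iNOS enzyme activity measured with L-arginine as substrate; in other assays of this panel Not Active means under 50% inhibition at 10 µM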
T1 sequence (P29477 whole entry): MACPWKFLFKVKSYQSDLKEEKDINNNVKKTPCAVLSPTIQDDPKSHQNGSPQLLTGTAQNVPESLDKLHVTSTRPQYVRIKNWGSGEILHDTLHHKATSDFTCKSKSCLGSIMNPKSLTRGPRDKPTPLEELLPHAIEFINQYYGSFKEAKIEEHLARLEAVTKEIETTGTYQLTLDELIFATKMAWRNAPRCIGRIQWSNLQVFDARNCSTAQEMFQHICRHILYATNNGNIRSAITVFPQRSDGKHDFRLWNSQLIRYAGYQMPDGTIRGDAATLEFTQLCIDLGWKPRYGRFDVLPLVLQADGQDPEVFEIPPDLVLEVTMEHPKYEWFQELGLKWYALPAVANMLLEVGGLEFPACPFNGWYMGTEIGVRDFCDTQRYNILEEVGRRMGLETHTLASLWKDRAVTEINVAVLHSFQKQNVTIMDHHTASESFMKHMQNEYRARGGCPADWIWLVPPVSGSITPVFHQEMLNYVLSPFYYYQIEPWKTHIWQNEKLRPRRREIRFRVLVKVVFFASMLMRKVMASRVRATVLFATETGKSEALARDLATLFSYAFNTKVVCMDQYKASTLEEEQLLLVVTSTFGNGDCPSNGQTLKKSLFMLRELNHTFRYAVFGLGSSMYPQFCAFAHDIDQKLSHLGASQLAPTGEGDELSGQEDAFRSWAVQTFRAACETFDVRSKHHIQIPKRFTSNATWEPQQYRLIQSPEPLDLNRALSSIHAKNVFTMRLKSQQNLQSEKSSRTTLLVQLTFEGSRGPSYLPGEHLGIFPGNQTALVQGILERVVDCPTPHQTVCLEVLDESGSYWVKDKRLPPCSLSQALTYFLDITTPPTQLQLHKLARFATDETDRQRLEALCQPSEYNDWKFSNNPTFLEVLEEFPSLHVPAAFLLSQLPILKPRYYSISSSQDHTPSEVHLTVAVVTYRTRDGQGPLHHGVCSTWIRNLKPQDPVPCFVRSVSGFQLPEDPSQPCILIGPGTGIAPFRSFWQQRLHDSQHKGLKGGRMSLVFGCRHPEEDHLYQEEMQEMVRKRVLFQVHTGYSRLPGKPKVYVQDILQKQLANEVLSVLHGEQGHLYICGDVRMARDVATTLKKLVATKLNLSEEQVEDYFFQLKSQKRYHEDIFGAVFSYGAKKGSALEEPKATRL

[4] = biological target: Sodium-dependent noradrenaline transporter (Homo sapiens, UniProt P23975); assay: DRUGMATRIX: Norepinephrine Transporter radioligand binding (ligand: [125I] RTI-55); type: cell membranes, MDCK, Membrane; conditions: mdck; Not Active = under 50% inhibition at 10 µM
Sodium-dependent noradrenaline transporter, sequence (P23975 whole entry): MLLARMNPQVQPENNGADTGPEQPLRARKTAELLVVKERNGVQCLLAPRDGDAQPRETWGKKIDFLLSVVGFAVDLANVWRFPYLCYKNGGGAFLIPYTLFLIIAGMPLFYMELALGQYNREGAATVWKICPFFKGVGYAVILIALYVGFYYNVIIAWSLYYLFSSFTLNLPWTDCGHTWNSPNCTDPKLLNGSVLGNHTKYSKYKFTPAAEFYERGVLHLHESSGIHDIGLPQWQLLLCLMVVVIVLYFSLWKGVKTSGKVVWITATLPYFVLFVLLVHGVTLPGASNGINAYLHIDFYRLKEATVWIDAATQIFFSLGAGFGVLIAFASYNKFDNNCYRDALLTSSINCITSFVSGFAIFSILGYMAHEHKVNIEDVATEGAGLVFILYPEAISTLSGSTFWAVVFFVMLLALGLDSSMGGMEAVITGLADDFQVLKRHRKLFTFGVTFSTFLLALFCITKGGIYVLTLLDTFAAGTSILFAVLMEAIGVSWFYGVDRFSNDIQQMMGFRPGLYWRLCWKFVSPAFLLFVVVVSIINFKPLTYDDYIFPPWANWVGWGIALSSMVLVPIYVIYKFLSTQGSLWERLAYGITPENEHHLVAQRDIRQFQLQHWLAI

[5] = biological target: T2, Adenosine receptor A3 (Homo sapiens, UniProt P0DMS8); type: cell membranes, CHO-K1, Membrane;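 note: radioligand binding assay with AB-MECA serving as the labeled ligand; in other assays of this panel Not Active means under 50% inhibition at 10 µM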
T2 sequence (P0DMS8 whole entry): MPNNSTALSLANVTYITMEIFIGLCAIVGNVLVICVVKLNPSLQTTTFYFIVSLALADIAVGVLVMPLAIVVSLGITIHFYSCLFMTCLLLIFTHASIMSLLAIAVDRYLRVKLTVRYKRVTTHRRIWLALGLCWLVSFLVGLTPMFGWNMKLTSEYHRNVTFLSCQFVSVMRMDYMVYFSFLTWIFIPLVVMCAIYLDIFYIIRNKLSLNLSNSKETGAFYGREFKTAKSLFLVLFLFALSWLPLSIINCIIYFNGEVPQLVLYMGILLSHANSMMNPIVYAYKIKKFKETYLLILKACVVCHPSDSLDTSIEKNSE

[6] = biological target: Aldo-keto reductase family 1 member B1 (Rattus norvegicus, UniProt P07943); type: tissue-based, Lens of camera-type eye;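 note: inhibition of aldose reductase enzyme activity, measured with DL-glyceraldehyde as the substrate; in other assays of this panel Not Active means under 50% inhibition at 10 µM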

Cytochrome P450 2D6, sequence (P10635 whole entry): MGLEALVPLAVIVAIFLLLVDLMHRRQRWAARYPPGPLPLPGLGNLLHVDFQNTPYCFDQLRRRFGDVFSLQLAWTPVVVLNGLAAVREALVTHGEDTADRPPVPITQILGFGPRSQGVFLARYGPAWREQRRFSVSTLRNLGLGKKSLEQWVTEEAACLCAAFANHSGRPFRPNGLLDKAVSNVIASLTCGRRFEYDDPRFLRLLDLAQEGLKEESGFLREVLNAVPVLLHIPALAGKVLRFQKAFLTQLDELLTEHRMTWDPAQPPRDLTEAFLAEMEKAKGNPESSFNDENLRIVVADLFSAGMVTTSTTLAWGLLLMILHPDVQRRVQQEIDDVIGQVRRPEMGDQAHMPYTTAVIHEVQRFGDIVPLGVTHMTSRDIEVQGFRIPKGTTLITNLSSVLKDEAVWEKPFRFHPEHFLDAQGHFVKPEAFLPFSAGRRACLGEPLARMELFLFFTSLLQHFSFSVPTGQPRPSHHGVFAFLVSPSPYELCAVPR

SMILES: CC(C)(C)NC(=O)[C@H]1CC[C@H]2[C@@H]3CC[C@H]4NC(=O)C=C[C@]4(C)[C@H]3CC[C@]12C [FINASTERIDE]
- IC50 [1]: Not Active
- Ki [1]: Not Active
- IC50 [2]: Not Active
- Ki [2]: Not Active
- IC50 [3]: Not Active
- IC50 [4]: Not Active
- IC50 ([5]; cho-k1): Not Active
- IC50 [6]: Not Active

SMILES: Nc1ccn([C@@H]2O[C@H](CO)[C@@H](O)C2(F)F)c(=O)n1 [GEMCITABINE]
- IC50 [1]: Not Active
- Ki [1]: Not Active
- IC50 [2]: Not Active
- Ki [2]: Not Active
- IC50 [3]: Not Active
- IC50 [4]: Not Active
- IC50 ([5]; cho-k1): Not Active
- IC50 [6]: Not Active

SMILES: N=C(N)NC(=O)Cc1c(Cl)cccc1Cl [GUANFACINE]
- IC50 [1]: Not Active
- Ki [1]: Not Active
- IC50 [2]: Not Active
- Ki [2]: Not Active
- IC50 [3]: Not Active
- IC50 [4]: Not Active
- IC50 ([5]; cho-k1): Not Active
- IC50 [6]: Not Active

SMILES: Oc1c(Cl)cc(Cl)c(Cl)c1Cc1c(O)c(Cl)cc(Cl)c1Cl [HEXACHLOROPHENE]
- IC50 [1]: Not Active
- Ki [1]: Not Active
- IC50 ([2]; read-out: IC50): 6130 nM
- IC50 [3]: Not Active
- IC50 [4]: Not Active
- IC50 ([5]; read-out: IC50): 639 nM
- Ki ([5]; read-out: Ki): 361 nM
- IC50 [6]: Not Active

SMILES: NNc1nncc2ccccc12 [HYDRALAZINE]
- IC50 [1]: Not Active
- Ki [1]: Not Active
- IC50 [2]: Not Active
- Ki [2]: Not Active
- IC50 [3]: Not Active
- IC50 [4]: Not Active
- IC50 ([5]; cho-k1): Not Active
- IC50 [6]: Not Active

SMILES: CC(C)NNC(=O)c1ccncc1 [IPRONIAZID]
- IC50 [1]: Not Active
- Ki [1]: Not Active
- IC50 [2]: Not Active
- Ki [2]: Not Active
- IC50 [3]: Not Active
- IC50 [4]: Not Active
- IC50 ([5]; cho-k1): Not Active
- IC50 [6]: Not Active

SMILES: O=c1cc(N2CCOCC2)oc2c(-c3ccccc3)cccc12 [LY-294002]
- IC50 [1]: Not Active
- Ki [1]: Not Active
- IC50 [2]: Not Active
- Ki [2]: Not Active
- IC50 [3]: Not Active
- IC50 [4]: Not Active
- IC50 ([5]; cho-k1): Not Active
- IC50 [6]: Not Active

SMILES: COc1ccc2[nH]cc(CCNC(C)=O)c2c1 [MELATONIN]
- IC50 [1]: Not Active
- Ki [1]: Not Active
- IC50 [2]: Not Active
- Ki [2]: Not Active
- IC50 [3]: Not Active
- IC50 [4]: Not Active
- IC50 ([5]; cho-k1): Not Active
- IC50 [6]: Not Active

SMILES: NC(=O)C[S+]([O-])C(c1ccccc1)c1ccccc1 (stereo unspecified) [MODAFINIL]
- IC50 [1]: Not Active
- Ki [1]: Not Active
- IC50 [2]: Not Active
- Ki [2]: Not Active
- IC50 [3]: Not Active
- IC50 [4]: Not Active
- IC50 ([5]; cho-k1): Not Active
- IC50 [6]: Not Active

SMILES: CCN(CC)CCOCCC1=CCC2CC1C2(C)C (stereo unspecified) [MYRTECAINE]
- IC50 [1]: Not Active
- Ki [1]: Not Active
- IC50 [2]: Not Active
- Ki [2]: Not Active
- IC50 [3]: Not Active
- IC50 [4]: Not Active
- IC50 ([5]; cho-k1): Not Active
- IC50 [6]: Not Active

SMILES: O=C(O)c1cccnc1Nc1cccc(C(F)(F)F)c1 [NIFLUMIC ACID]
- IC50 [1]: Not Active
- Ki [1]: Not Active
- IC50 [2]: Not Active
- Ki [2]: Not Active
- IC50 [3]: Not Active
- IC50 [4]: Not Active
- IC50 ([5]; cho-k1): Not Active
- IC50 [6]: Not Active

SMILES: O=C(N/N=C/c1ccc([N+](=O)[O-])o1)c1cc([N+](=O)[O-])cc([N+](=O)[O-])c1O [NIFURSOL]
- IC50 [1]: Not Active
- Ki [1]: Not Active
- IC50 [2]: Not Active
- Ki [2]: Not Active
- IC50 [3]: Not Active
- IC50 [4]: Not Active
- IC50 ([5]; cho-k1): Not Active
- IC50 [6]: Not Active
